Laboratory results: patent publication US8952024B2, “Herbicidal pyrimidone derivatives” (E I du Pont de Nemours and Company, priority 2009, dated 2015)

Tests used:
Format in all cases: in vivo
[1] = test system: canarygrass (Phalaris minor); assay: Test B postemergence plant response; conditions: for Canarygrass plant response rating (0 to 100 scale): 62 g ai/ha, postemergence, 0 is no effect, 100 is complete control; for Plant response rating, Canarygrass: Postemergence
How it was run: (§1)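 Visual ratings from 0 (no effect) to 100 (complete control), made against controls 13–15 days after treatment, kept in a greenhouse. Compounds were applied postemergence to potted plants at the 1- to 4-leaf stage (2–18 cm).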

[2] = test system: windgrass (Apera spica-venti); assay: Test B postemergence plant response; conditions: for Windgrass plant response rating (0 to 100 scale): 62 g ai/ha, postemergence, 0 is no effect, 100 is complete control; for Plant response rating, Windgrass: Postemergence
How it was run: as §1

[3] = test system: winter barley (Hordeum vulgare); assay: Test B postemergence plant response; conditions: for Barley plant response rating (0 to 100 scale): 62 g ai/ha, postemergence, 0 is no effect, 100 is complete control; for Plant response rating, Barley: Postemergence
How it was run: as §1

[4] = test system: chickweed (Stellaria media); assay: Test B postemergence plant response; conditions: for Chickweed plant response rating (0 to 100 scale): 62 g ai/ha, postemergence, 0 is no effect, 100 is complete control; for Plant response rating, Chickweed: Postemergence
How it was run: as §1

[5] = test system: barnyardgrass (Echinochloa crus-galli); assay: Test A pre-/postemergence plant response
How it was run: (§2)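 Pre: directed soil spray on seeded loam/sand blend. Post: same formulation (non-phytotoxic solvent + surfactant) on 2–10 cm plants, 1–2 leaf stage. Greenhouse ~10 d; visual injury score 0–100 vs untreated.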

[6] = test system: large crabgrass (Digitaria sanguinalis); assay: Test A pre-/postemergence plant response
How it was run: as §2

[7] = test system: morningglory (Ipomoea spp.); assay: Test A pre-/postemergence plant response
How it was run: as §2

[8] = test system: giant foxtail (Setaria faberii); assay: Test A pre-/postemergence plant response
How it was run: as §2

corn (Zea mays) = assay: Test A pre-/postemergence plant response
How it was run: as §2

[9] = test system: velvetleaf (Abutilon theophrasti); assay: Test A pre-/postemergence plant response
How it was run: as §2

[10] = test system: wheat (Triticum aestivum); assay: Test A pre-/postemergence plant response
How it was run: as §2

[11] = test system: pigweed (Amaranthus retroflexus); assay: Test A pre-/postemergence plant response
How it was run: as §2

[12] = 31 g ai/ha, 0 to 100 scale (0 no effect, 100 complete control)
[13] = 125 g ai/ha, scale 0 to 100 (0 no effect, 100 complete control)
[14] = 250 g ai/ha, scale 0 to 100 (0 no effect, 100 complete control), 13 to 15 days
[15] = Postemergence, 125 g ai/ha, 0 to 100 scale where 0 is no effect and 100 is complete control
[16] = Postemergence, 500 g ai/ha, 0 to 100 scale, 0 = no effect, 100 = complete control, approx. ten days
[17] = Preemergence, 125 g ai/ha, 0 to 100 scale, 0 = no effect, 100 = complete control
[18] = Preemergence, 500 g ai/ha, visual injury, 0 to 100 scale (0 no effect, 100 complete control), approx. ten days
[19] = Preemergence, 500 g ai/ha, 0 to 100 scale, 0 = no effect, 100 = complete control

## COCCn1c(-c2cccc(Cl)c2)ncc(C(=O)C2=C(O)CCCC2=O)c1=O [Compound 147]
[1]; 13 to 15 days
  Canarygrass plant response rating (0 to 100 scale): 0
[1]; [12]
  Plant response rating, Canarygrass: 0
[1]; [13]
  Plant response rating, Canarygrass: 5
[1]; [14]
  Plant response rating, Canarygrass: 5
[2]; 13 to 15 days
  Windgrass plant response rating (0 to 100 scale): 50
[2]; [12]
  Plant response rating, Windgrass: 10
[2]; [13]
  Plant response rating, Windgrass: 55
[2]; [14]
  Plant response rating, Windgrass: 70
[3]; 13 to 15 days
  Barley plant response rating (0 to 100 scale): 0
[3]; [12]
  Plant response rating, Barley: 0
[3]; [13]
  Plant response rating, Barley: 0
[3]; [14]
  Plant response rating, Barley: 0
[4]; 13 to 15 days
  Chickweed plant response rating (0 to 100 scale): 90
[4]; [12]
  Plant response rating, Chickweed: 70
[4]; [13]
  Plant response rating, Chickweed: 98
[4]; [14]
  Plant response rating, Chickweed: 98
[5]; [15]
  Plant response rating, Barnyardgrass: 80
[5]; [16]
  Plant response rating, Barnyardgrass: 90
[5]; [17]
  Plant response rating, Barnyardgrass: 70
[5]; [18]
  Plant response rating, Barnyardgrass: 100
[6]; [15]
  Plant response rating, Crabgrass, Large: 80
[6]; [16]
  Plant response rating, Crabgrass, Large: 90
[6]; [17]
  Plant response rating, Crabgrass, Large: 100
[6]; [18]
  Plant response rating, Crabgrass, Large: 100
[7]; [15]
  Plant response rating, Morningglory: 100
[7]; [16]
  Plant response rating, Morningglory: 100
[7]; [17]
  Plant response rating, Morningglory: 40
[7]; [18]
  Plant response rating, Morningglory: 90
[8]; [15]
  Plant response rating, Foxtail, Giant: 70
[8]; [16]
  Plant response rating, Foxtail, Giant: 80
[8]; [17]
  Plant response rating, Foxtail, Giant: 70
[8]; [18]
  Plant response rating, Foxtail, Giant: 90
Corn (Zea mays); [15]
  Plant response rating, Corn: 20
Corn (Zea mays); [16]
  Plant response rating, Corn: 30
Corn (Zea mays); [17]
  Plant response rating, Corn: 0
Corn (Zea mays); [18]
  Plant response rating, Corn: 0
[9]; [15]
  Plant response rating, Velvetleaf: 100
[9]; [16]
  Plant response rating, Velvetleaf: 100
[9]; [17]
  Plant response rating, Velvetleaf: 80
[9]; [19]
  Plant response rating, Velvetleaf: 100
[10]; [15]
  Plant response rating, Wheat: 20
[10]; [16]
  Plant response rating, Wheat: 60
[10]; [17]
  Plant response rating, Wheat: 0
[10]; [19]
  Plant response rating, Wheat: 20
[11]; [15]
  Plant response rating, Pigweed: 100
[11]; [16]
  Plant response rating, Pigweed: 100
[11]; [17]
  Plant response rating, Pigweed: 90
[11]; [18]
  Plant response rating, Pigweed: 100

## CCCn1c(-c2cc(F)cc(F)c2)ncc(C(=O)C2=C(O)CCCC2=O)c1=O [Compound 152]
[1]; 13 to 15 days
  Canarygrass plant response rating (0 to 100 scale): 45
[1]; [12]
  Plant response rating, Canarygrass: 35
[1]; [13]
  Plant response rating, Canarygrass: 80
[1]; [14]
  Plant response rating, Canarygrass: 85
[2]; 13 to 15 days
  Windgrass plant response rating (0 to 100 scale): 70
[2]; [12]
  Plant response rating, Windgrass: 50
[2]; [13]
  Plant response rating, Windgrass: 85
[2]; [14]
  Plant response rating, Windgrass: 98
[3]; 13 to 15 days
  Barley plant response rating (0 to 100 scale): 45
[3]; [12]
  Plant response rating, Barley: 10
[3]; [13]
  Plant response rating, Barley: 85
[3]; [14]
  Plant response rating, Barley: 90
[4]; 13 to 15 days
  Chickweed plant response rating (0 to 100 scale): 65
[4]; [12]
  Plant response rating, Chickweed: 10
[4]; [13]
  Plant response rating, Chickweed: 90
[4]; [14]
  Plant response rating, Chickweed: 95
[5]; [15]
  Plant response rating, Barnyardgrass: 100
[5]; [16]
  Plant response rating, Barnyardgrass: 100
[5]; [17]
  Plant response rating, Barnyardgrass: 50
[5]; [18]
  Plant response rating, Barnyardgrass: 100
[6]; [15]
  Plant response rating, Crabgrass, Large: 90
[6]; [16]
  Plant response rating, Crabgrass, Large: 100
[6]; [17]
  Plant response rating, Crabgrass, Large: 90
[6]; [18]
  Plant response rating, Crabgrass, Large: 100
[7]; [15]
  Plant response rating, Morningglory: 100
[7]; [16]
  Plant response rating, Morningglory: 100
[7]; [17]
  Plant response rating, Morningglory: 60
[7]; [18]
  Plant response rating, Morningglory: 80
[8]; [15]
  Plant response rating, Foxtail, Giant: 80
[8]; [16]
  Plant response rating, Foxtail, Giant: 100
[8]; [17]
  Plant response rating, Foxtail, Giant: 60
[8]; [18]
  Plant response rating, Foxtail, Giant: 90
Corn (Zea mays); [15]
  Plant response rating, Corn: 0
Corn (Zea mays); [16]
  Plant response rating, Corn: 50
Corn (Zea mays); [17]
  Plant response rating, Corn: 0
Corn (Zea mays); [18]
  Plant response rating, Corn: 30
[9]; [15]
  Plant response rating, Velvetleaf: 100
[9]; [16]
  Plant response rating, Velvetleaf: 100
[9]; [17]
  Plant response rating, Velvetleaf: 60
[9]; [19]
  Plant response rating, Velvetleaf: 100
[10]; [15]
  Plant response rating, Wheat: 20
[10]; [16]
  Plant response rating, Wheat: 70
[10]; [17]
  Plant response rating, Wheat: 20
[10]; [19]
  Plant response rating, Wheat: 50
[11]; [15]
  Plant response rating, Pigweed: 100
[11]; [16]
  Plant response rating, Pigweed: 100
[11]; [17]
  Plant response rating, Pigweed: 100
[11]; [18]
  Plant response rating, Pigweed: 100
